Experimental data published in publication PMC11520566, “Discovery of pyrazole-based analogs as CDK2 inhibitors with apoptotic-inducing activity: design, synthesis and molecular dynamics study” (RSC Advances, 2024).

What was measured:
MDA-MB-435 = assay: NCI 60 five dose assay, Melanoma; assay type: cell-based, human
SK-MEL-28 = assay: NCI 60 five dose assay, Melanoma; assay type: cell-based, human
SNB-19 = assay: NCI 60 five dose assay, CNS cancer; assay type: cell-based, human
SF-295 [1] = assay: NCI 60 five dose assay, CNS cancer; assay type: cell-based, human
HCT-116 cell line = assay: MTT cell viability assay; assay type: cell-based; settings: Homo sapiens, read-out: IC50 (cytotoxicity, MTT)
HOP-92 = assay: NCI 60 five dose assay, Non-small cell lung cancer; assay type: cell-based, human
SN12C = assay: NCI 60 five dose assay, Renal cancer; assay type: cell-based, human
NCI-H322M = assay: NCI 60 five dose assay, Non-small cell lung cancer; assay type: cell-based, human
MDA-MB-231/ATCC = assay: NCI 60 five dose assay, Breast cancer; assay type: cell-based, human
K-562 = assay: NCI 60 five dose assay, Leukemia; assay type: cell-based, human
SK-MEL-5 = assay: NCI 60 five dose assay, Melanoma; assay type: cell-based, human
NCI-H226 = assay: NCI 60 five dose assay, Non-small cell lung cancer; assay type: cell-based, human
SF-268 = assay: NCI 60 single dose screen, CNS cancer; assay type: cell-based, human; settings: single dose 10 μM
Description: (§1) The newly synthesized pyrazoles 2a–g, 7a–d, 8a and b, 9, and 10 were submitted to the National Cancer Institute (NCI) Developmental Therapeutics Program (http://www.dtp.nci.nih.gov) for assessment of their potential antiproliferative activity against a panel of NCI 60 cancer cell lines. All compounds were approved for screening against the approved 60 cancer cell lines at a single dose of 10 μM. The human cancer cell lines were derived from 9 variant cancer types including leukemia, melanoma, lung, colon, CNS, ovarian, renal, prostate and breast cancers. The results are presented as percentage of growth inhibition (GI%) of the screened compounds against the full panel of cell lines.
(§2) Under sterile conditions, the cell lines were grown in RPMI 1640 media (Gibco, NY, USA) supplemented with 10% fetal bovine serum (Biocell, CA, USA), and […] cell/mL was used to test the growth inhibition activity of the synthesized compounds. The compounds with concentrations ranging from 0.01 to 100 μM were prepared in phosphate buffer saline. Each compound was initially solubilized in dimethyl sulfoxide (DMSO); however, each final dilution contained less than 1% DMSO. Solutions of different concentrations (0.2 mL) were pipetted into the separate well of a microtiter tray in duplicate. […] After 48 h, the cells in each well were diluted 10 times with saline and counted using a Coulter counter. […]

SF-295 [2] = assay: NCI 60 single dose screen, CNS cancer; assay type: cell-based, human; settings: single dose 10 μM
Description: as §1, §2

SK-OV-3 = assay: NCI 60 five dose assay, Ovarian cancer; assay type: cell-based, human
RPMI-8226 = assay: NCI 60 five dose assay, Leukemia; assay type: cell-based, human
SW-620 = assay: NCI 60 five dose assay, Colon cancer; assay type: cell-based, human
[3] = Homo sapiens, read-out: LC50 (the source's name)

For `CC(=NNc1ccc(S(N)(=O)=O)cc1)c1ccc(NN=C2C(=O)NN=C2Nc2ccccc2)cc1` [Compound 4, 4-(2-(1-(4-(2-(5-oxo-3-(phenylamino)-1,5-dihydro-4H-pyrazol-4-ylidene)hydrazinyl)phenyl)ethylidene)hydrazinyl)benzene sulfonamide], the GI50 (MDA-MB-435; Homo sapiens) was 2.07 µM, the CC50 (MDA-MB-435; [3]) was 17.8 µM and the “Percent Growth” value (MDA-MB-435; Log10 Concentration -4.0 Molar) was -83%. For the same compound, the “Percent Growth” value (MDA-MB-435; Log10 Concentration -5.0 Molar) was -39%, the “Percent Growth” value (MDA-MB-435; Log10 Concentration -6.0 Molar) was 91% and the “Percent Growth” value (MDA-MB-435; Log10 Concentration -7.0 Molar) was 98%. For the same compound, the “Percent Growth” value (MDA-MB-435; Log10 Concentration -8.0 Molar) was 90%, the GI50 (SK-MEL-28; Homo sapiens) was 1.91 µM and the CC50 (SK-MEL-28; [3]) was 6.99 µM. For the same compound, the “Percent Growth” value (SK-MEL-28; Log10 Concentration -4.0 Molar) was -93%, the “Percent Growth” value (SK-MEL-28; Log10 Concentration -5.0 Molar) was -78% and the “Percent Growth” value (SK-MEL-28; Log10 Concentration -6.0 Molar) was 100%. For the same compound, the “Percent Growth” value (SK-MEL-28; Log10 Concentration -7.0 Molar) was 109%, the “Percent Growth” value (SK-MEL-28; Log10 Concentration -8.0 Molar) was 96% and the GI50 (SNB-19; Homo sapiens) was 2.59 µM. The CC50 (SNB-19; [3]) was 29.6 µM, the “Percent Growth” value (SNB-19; Log10 Concentration -4.0 Molar) was -100% and the “Percent Growth” value (SNB-19; Log10 Concentration -5.0 Molar) was -5%. The “Percent Growth” value (SNB-19; Log10 Concentration -6.0 Molar) was 89%, the “Percent Growth” value (SNB-19; Log10 Concentration -7.0 Molar) was 94% and the “Percent Growth” value (SNB-19; Log10 Concentration -8.0 Molar) was 91%. For the same compound, the GI50 (SF-295 [1]; Homo sapiens) was 3.67 µM, the CC50 (SF-295 [1]; [3]) was 38.7 µM and the “Percent Growth” value (SF-295 [1]; Log10 Concentration -4.0 Molar) was -95%. For the same compound, the “Percent Growth” value (SF-295 [1]; Log10 Concentration -5.0 Molar) was 15%, the “Percent Growth” value (SF-295 [1]; Log10 Concentration -6.0 Molar) was 96% and the “Percent Growth” value (SF-295 [1]; Log10 Concentration -7.0 Molar) was 96%. For the same compound, the “Percent Growth” value (SF-295 [1]; Log10 Concentration -8.0 Molar) was 83%, the IC50 (HCT-116 cell line) was 1.81 µM and the GI50 (HOP-92; Homo sapiens) was 1.3 µM. For the same compound, the CC50 (HOP-92; [3]) was 30.7 µM, the “Percent Growth” value (HOP-92; Log10 Concentration -4.0 Molar) was -89% and the “Percent Growth” value (HOP-92; Log10 Concentration -5.0 Molar) was -13%. The “Percent Growth” value (HOP-92; Log10 Concentration -6.0 Molar) was 58%, the “Percent Growth” value (HOP-92; Log10 Concentration -7.0 Molar) was 81% and the “Percent Growth” value (HOP-92; Log10 Concentration -8.0 Molar) was 74%. For the same compound, the GI50 (SN12C; Homo sapiens) was 2.38 µM, the CC50 (SN12C; [3]) was 23.5 µM and the “Percent Growth” value (SN12C; Log10 Concentration -4.0 Molar) was -100%. The “Percent Growth” value (SN12C; Log10 Concentration -5.0 Molar) was -21%, the “Percent Growth” value (SN12C; Log10 Concentration -6.0 Molar) was 93% and the “Percent Growth” value (SN12C; Log10 Concentration -7.0 Molar) was 92%. For the same compound, the “Percent Growth” value (SN12C; Log10 Concentration -8.0 Molar) was 95%, the GI50 (NCI-H322M; Homo sapiens) was 3.72 µM and the CC50 (NCI-H322M; [3]) was 41.9 µM. For the same compound, the “Percent Growth” value (NCI-H322M; Log10 Concentration -4.0 Molar) was -93%, the “Percent Growth” value (NCI-H322M; Log10 Concentration -5.0 Molar) was 21% and the “Percent Growth” value (NCI-H322M; Log10 Concentration -6.0 Molar) was 89%. For the same compound, the “Percent Growth” value (NCI-H322M; Log10 Concentration -7.0 Molar) was 99%, the “Percent Growth” value (NCI-H322M; Log10 Concentration -8.0 Molar) was 103% and the GI50 (MDA-MB-231/ATCC; Homo sapiens) was 2 µM. For the same compound, the CC50 (MDA-MB-231/ATCC; [3]) was 8.28 µM, the “Percent Growth” value (MDA-MB-231/ATCC; Log10 Concentration -4.0 Molar) was -100% and the “Percent Growth” value (MDA-MB-231/ATCC; Log10 Concentration -5.0 Molar) was -63%. For the same compound, the “Percent Growth” value (MDA-MB-231/ATCC; Log10 Concentration -6.0 Molar) was 99%, the “Percent Growth” value (MDA-MB-231/ATCC; Log10 Concentration -7.0 Molar) was 99% and the “Percent Growth” value (MDA-MB-231/ATCC; Log10 Concentration -8.0 Molar) was 95%. For the same compound, the GI50 (K-562; Homo sapiens, K562) was 2.29 µM, the CC50 (K-562; Homo sapiens, K562, read-out: LC50 (the source's name)) was 22.8 µM and the “Percent Growth” value (K-562; Log10 Concentration -4.0 Molar) was -100%. For the same compound, the “Percent Growth” value (K-562; Log10 Concentration -5.0 Molar) was -22%, the “Percent Growth” value (K-562; Log10 Concentration -6.0 Molar) was 90% and the “Percent Growth” value (K-562; Log10 Concentration -7.0 Molar) was 87%. The “Percent Growth” value (K-562; Log10 Concentration -8.0 Molar) was 88%, the GI50 (SK-MEL-5; Homo sapiens) was 3.32 µM and the CC50 (SK-MEL-5; [3]) was 35.8 µM. For the same compound, the “Percent Growth” value (SK-MEL-5; Log10 Concentration -4.0 Molar) was -100%, the “Percent Growth” value (SK-MEL-5; Log10 Concentration -5.0 Molar) was 12% and the “Percent Growth” value (SK-MEL-5; Log10 Concentration -6.0 Molar) was 91%. The “Percent Growth” value (SK-MEL-5; Log10 Concentration -7.0 Molar) was 100%, the “Percent Growth” value (SK-MEL-5; Log10 Concentration -8.0 Molar) was 95% and the GI50 (NCI-H226; Homo sapiens) was 3.31 µM. For the same compound, the CC50 (NCI-H226; [3]) was 35.1 µM, the “Percent Growth” value (NCI-H226; Log10 Concentration -4.0 Molar) was -100% and the “Percent Growth” value (NCI-H226; Log10 Concentration -5.0 Molar) was 10%. The “Percent Growth” value (NCI-H226; Log10 Concentration -6.0 Molar) was 93%, the “Percent Growth” value (NCI-H226; Log10 Concentration -7.0 Molar) was 102% and the “Percent Growth” value (NCI-H226; Log10 Concentration -8.0 Molar) was 96%. The GI% (SF-268) was 90.67%, the GI% (SF-295 [2]) was 94.88% and the GI50 (SK-OV-3; Homo sapiens) was 2.34 µM. For the same compound, the CC50 (SK-OV-3; [3]) was 23.7 µM, the “Percent Growth” value (SK-OV-3; Log10 Concentration -4.0 Molar) was -98% and the “Percent Growth” value (SK-OV-3; Log10 Concentration -5.0 Molar) was -21%. For the same compound, the “Percent Growth” value (SK-OV-3; Log10 Concentration -6.0 Molar) was 92%, the “Percent Growth” value (SK-OV-3; Log10 Concentration -7.0 Molar) was 102% and the “Percent Growth” value (SK-OV-3; Log10 Concentration -8.0 Molar) was 89%. For the same compound, the GI50 (RPMI-8226; Homo sapiens) was 3.36 µM, the CC50 (RPMI-8226; [3]) was over 100 µM and the “Percent Growth” value (RPMI-8226; Log10 Concentration -4.0 Molar) was -15%. The “Percent Growth” value (RPMI-8226; Log10 Concentration -5.0 Molar) was 12%, the “Percent Growth” value (RPMI-8226; Log10 Concentration -6.0 Molar) was 92% and the “Percent Growth” value (RPMI-8226; Log10 Concentration -7.0 Molar) was 101%. The “Percent Growth” value (RPMI-8226; Log10 Concentration -8.0 Molar) was 101%, the GI50 (SW-620; Homo sapiens) was 3.18 µM and the CC50 (SW-620; [3]) was 58.8 µM. The “Percent Growth” value (SW-620; Log10 Concentration -4.0 Molar) was -67%, the “Percent Growth” value (SW-620; Log10 Concentration -5.0 Molar) was 7% and the “Percent Growth” value (SW-620; Log10 Concentration -6.0 Molar) was 93%. For the same compound, the “Percent Growth” value (SW-620; Log10 Concentration -7.0 Molar) was 102% and the “Percent Growth” value (SW-620; Log10 Concentration -8.0 Molar) was 102%.
